Source: patent US20250333389A1, “PHARMACEUTICAL FOR THE INHIBITION OF CELLULAR PROTON PUMPS” (AquaRemedi Pharmaceuticals INC, priority 2024, published 2025)
“Also recorded” adds a separate entry of the source. Where two headings read alike, the source gives them in different places.

How the values were obtained:
human Hv1 channel [1] = molecular target: T1, human Hv1 channel (Homo sapiens, UniProt Q96D96); test: Whole cell patch clamp recording of Hv1 proton currents in transfected HEK293T cells; format: cell-based; conditions: calculated as Ki=Koff/Kon, read-out: inhibition constant Ki for Hv1 channels
T1 construct: expressed in transfected cells; host or cells: HEK293T
T1 sequence (Q96D96 1-273): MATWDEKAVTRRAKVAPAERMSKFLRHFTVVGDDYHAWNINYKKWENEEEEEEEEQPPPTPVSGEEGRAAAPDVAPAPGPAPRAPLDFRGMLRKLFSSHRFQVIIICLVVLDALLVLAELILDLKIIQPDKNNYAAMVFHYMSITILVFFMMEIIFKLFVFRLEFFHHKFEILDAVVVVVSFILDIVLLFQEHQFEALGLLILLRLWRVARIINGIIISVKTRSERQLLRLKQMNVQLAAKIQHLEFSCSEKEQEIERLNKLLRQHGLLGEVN

human Hv1 channel [2] = molecular target: T1, human Hv1 channel; test: as above; format: cell-based; conditions: for V1/2 shift of G-V curve: Boltzmann fit; for pore blocker strength for Hv1 channel (in words): conclusion from patch clamp data
From the text: For conducting experiments, we used HEK293T cells. The HEK293T cells were purchased from American Type Culture Collection (ATCC). For cell culture, the HEK293T cells were maintained in ATTC's Dulbecco's Modified Eagle's Medium (DMEM) supplemented with a 10% fetal bovine serum (FBS 10%) and 1% penicillin and streptomycin. Plasmids were transfected into cells using a transfection reagent, Lipofectamine™ 2000 according to the manufacturer's instructions (Life Technologies). Experiments were performed 24-48 hours post-transfection.
For the experimental studies, similar techniques as utilized by Zhao et. al is used in this invention. (Zhao et al., Role of human Hv1 channels in sperm capacitation and white blood cell respiratory burst established by a designed peptide inhibitor, Proc Natl Acad Sci USA. 2018, PMID: 30478045, PMCID: PMC6294887).
In the present invention, a Whole Cell patch clamp technique was utilized to study the Hv1 proton currents. The proton currents passed by Hv1 were recorded in Whole Cell mode using an Axon™ Axopatch™ 200B microelectrode amplifier. Stimulation and data collection were performed by a high-resolution, low-noise digitizer, Digidata 1322A, manufactured by Axon Instruments, Inc.) and Axon™ pCLAMP™ 10 Electrophysiology Data Acquisition & Analysis Software (released by Molecular Devices). Cells were perfused with an external bath solution comprised of a zwitterionic sulfonic acid buffering agent (100 mM HEPES), 100 mM NaCl, and 10 mM glucose at pH 7.5. During the patch clamp recording, the patch pipettes with a resistance between 3 and 5 MΩ were filled with 100 mM Bis-Tris buffer, 100 mM NaCl, and 10 mM glucose at pH 6.0. The sampling frequency was 10 kHz and the signals were filtered at 1 KHz.
Fractional unblocked current was assessed at the end of the test pulse.
Dose-response curves (the time course for block and unblock of Hv1 as shown in FIG. 9) show the fractional unblocked current, Icompound/Icontrol, versus toxin concentration. The curves were fit to the Hill equation, Fun=(1+([compound]/Ki)h)−1), wherein the [compound] is the effective compound concentration, Fun is the fraction of unblocked current at equilibrium. Ki is the inhibition constant and h is the Hill coefficient.

[3] = 100 nM compound, at −20 mV, holding −60 mV

Structure (SMILES) | Ki (human Hv1 channel [1]) [nM] | V1/2 shift of G-V curve (human Hv1 channel [2]; 10 μM compound, shift to the left) [mV] | block of Hv1 current (human Hv1 channel [2]; 10 μM compound, at −20 mV, holding −60 mV) [%] | pore blocker strength for Hv1 channel (in words) (human Hv1 channel [2]) | Ki (human Hv1 channel [1]; I-V plot, −20 mV) [nM] | time course of block (washin) (human Hv1 channel [2]; 100 nM applied to Hv1 channels) | V1/2 shift of G-V curve (human Hv1 channel [2]; 100 nM compound) | block of Hv1 channel current (human Hv1 channel [2]; [3]) [%] | time course of unblock (washout) (human Hv1 channel [2]; washed away with isotonic saline)
C=C[C@@H]1CS[C@H](c2ccccc2)N1C(=O)OC(C)(C)C [Original Compound, (2R,4R)-tert-butyl 2Phenyl-4-vinylthiazolidine-3-carboxylate] | 3000 | ~15 | 20 | weak pore blocker | – | – | – | – | –
CC(C)(C)OC(=O)N1[C@H](CO)CS[C@@H]1c1ccccc1 [S1, (2R,4R)-tert-butyl 4-(hydroxymethyl)-2-Phenylthiazolidine-3-carboxylate] | – | – | – | strong nano-molar pore blocker; also recorded: relatively strong pore blocker | 3 | blocks the channel current immediately | about 41 mV | 92 | the current resumes
O=C(O)[C@@H]1CS[C@H](c2ccccc2)N1 [S2, (2R,4R)-2-phenylthiazolidine-4-carboxylic acid] | – | – | – | strong nano-molar pore blocker | 20 | – | about 35 mV | 85 | –
